Where two headings read alike, the source gives them in different places. Blank lines part the entries; values can stand above or below the molecule they belong to.
Assays:
[1] = system: IFN-γ gene expression in NK92 cells; conditions: Kalina et al., J. Immunol. 2000; positive control; cited from earlier work
IL18 [2] = experiment: HEK-Blue IL18 cell reporter assay (SEAP); assay type: cell-based; conditions: Phase I; HEK-Blue IL18 cells, co-treated with recombinant human IL18 15 pM-100 pM, 18 hours; FIGS. 1A-1D
Method: HEK-Blue IL18 Cell Reporter Assay
HEK-Blue IL18 Cells (Invivogen California, USA), are a derivative of HEK293 cells that have been stably transfected with IL18Rα/IL18RAP genes and a SEAP reporter gene that is expressed and secreted in specific response to IL18. Cells were grown in […] tissue culture flasks with DMEM culture medium containing 4.5 g/L glucose, 10% (v/v) heat-inactivated fetal bovine serum, 50 μ/mL penicillin, 50 μg/mL streptomycin, 100 μg/mL Normocin and 2 mM L-glutamine at 37° C. in 5% CO2.
Stock concentration of IL18 was 750 μM stored in Tris-HCl buffer at −80° C. For treatment use, compounds were diluted in sterile PBS to 100 times the intended treatment concentration and administered into wells containing 198 μl media at volumes of 2 μl. Total DMSO contents for all vehicles was less than 0.02% prior to treatment, and less than 0.0002% within wells following treatment.
HEK-Blue IL18 cells were transferred from flasks and seeded at 40-50% confluency on 96-well culture plates 6 hours prior to treatment.
Phase I: Cells were treated with compounds at concentrations of […], 7.5 pM, and 1.5 pM, with three replicate wells for each concentration, and six replicate wells with no compound treatment (NT). All wells were then immediately co-treated with recombinant human IL18 at one concentration between 15 pM-100 pM. Following treatments, cells were incubated at 37° C. in 5% CO2 for 18 hours. Cell confluency typically reached 70-80% (˜80,000-100,000 cells per well) by this point, 24 hours after seeding.
To detect SEAP activity, 20 μL supernatant from each well was transferred and mixed with 180 μl alkaline phosphatase detection medium (QUANTi-Blue, InvivoGen, California, USA), in a separate 96-well plate and incubated for 3 hours at room temperature. Supernatant SEAP activity was measured by reading the optical density (OD) at 640 nm using a spectrophotometer. OD values were standardized to NT mean=1.
Statistical analysis was performed GraphPad Prism (California, USA) software. One-Way analysis of variance (ANOVA) with Dunnett's post-hoc analysis was used to determine significant variation between treatment and control (NT) groups treated only with IL18.

[3] = system: IFN-γ gene expression in NK92 cells; experiment: IFN-γ gene expression induction in NK-92 cells (qRT-PCR); assay type: cell-based; conditions: 24 hours
Method: IFN-γ Gene Expression Induction in NK-92 Cells
IFN-γ gene and protein expression induction is a standard to measure IL-18 activity in NK92 cells (Kalina et al., J. Immunol. 165:1307-1313, 2000).
NK92 cells were treated with 1 μM concentration of compounds 1, 10, or […]. […] 24 hours after treatment, total RNA was harvested and qRT-PCR was conducted using a previously published protocols (Raof et al., BMC Genomics, 17-20, 2016; Monahan et al., FASEB J., 23:557-564, 2009) to measure the gene expression of IFN-γ.

IL18 [4] = biological target: T1, IL18 (Homo sapiens, UniProt Q14116); experiment: Microscale Thermophoresis (MST) binding; set-up: Recombinant IL18 was fluorescently labelled using the lysine reactive Pico RED NT647 dye
T1 sequence (Q14116 37-193): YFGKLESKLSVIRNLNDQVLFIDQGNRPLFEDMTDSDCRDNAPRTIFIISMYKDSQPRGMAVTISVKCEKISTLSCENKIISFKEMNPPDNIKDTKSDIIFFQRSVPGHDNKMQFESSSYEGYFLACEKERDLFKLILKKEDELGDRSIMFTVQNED
Method: Microscale Thermophoresis
Recombinant IL18 was fluorescently labelled using the lysine reactive Pico RED NT647 dye from NanoTemper Technologies and stored in a PBS buffer containing 0.05% TWEEN (Buffer A). Stock concentration of labelled IL18 was […]. Working concentrations of IL18 were diluted in Buffer A to 10, 40, or 50 nM. Except for the positive control, IL18BP, stock concentration for all compounds, or ligands, was 10-25 mM in 100% DMSO. Ligands were diluted in Buffer A to working concentrations of 50-500 μM. Containing 0.8-2% DMSO. Stock concentration of IL8BP, was 50 μM, stored in 20 mM Tris-HI buffer (pH 8.0) containing 0.4 M Urea and 10% glycerol (Buffer B). Prior to MST experiments being performed 16 preparations of two-fold serial dilutions of ligand in uniform buffer, starting with the working Uigand concentration, were incubated with equal volumes of a fixed concentration of labelled IL8. After 30 minutes incubation at room temperature, 16 Monolith NT. 15 standard capillaries were loaded with 10 μl volumes of each of the ligand/IL18 preparations. Tests described in Results were run at 3700.
Experiments were performed on a Monolith NT.115Pico machine (NanoTemper Technologies GmbH, Germany). Data quality and analysis and graphic rendering were performed using MO.Affinity Analysis v2.3 software from NanoTemper technologies. Evaluation strategy for all analyses was standardized to measure relative change of fluorescence (FNorm %) over a 2.5 second of laser induced temperature shift per capillary. Statistical analysis was performed using NanoTemper's MOControl software. The results of this assay for compounds 1, 10, and 15 are shown in FIGS. 7, 8, 9A, 9B, and […] and Table 3 describes the MST assay conditions.

[5] = system: human saphenous vein segments; experiment: Cytokine expression in human saphenous vein ex vivo (LPS challenge, multiplex ELISA); assay type: cell-based; conditions: LPS 100 ng/ml + compound 10 μM, 18 hours, culture supernatant
Description: Example 2. Cytokine Expression in Human Saphenous Vein Ex Vivo
In this example, a cytokine storm/inflammation common to many vascular conditions has been modeled by challenging human saphenous vein segments with lipopolysaccharide (LPS). Discarded human saphenous vein samples were collected from patients undergoing peripheral bypass grafting.
Samples were subjected to Human (h) TheRPA (Therapeutic Responses Predictor Assay) which is based on ex-vivo treatment of biopsies (explant cultures). The tissues were transferred to the lab within 30 min of their harvesting and cultured in DMEM+10% FBS+1% antibiotic/antimycotic (DMEM plus glucose, glutamine, sodium pyruvate: Gibco 11995-065; Heat Inactivated FBS: Gibco 16140-089; Antibiotic-Antimycotic: Gibco 15240-096) in the presence of vehicle, LPS (100 ng/ml) or LPS (100 ng/ml)+compound 1/compound 10/compound 15 (10 μM). After 18 hours, culture supernatants were collected and kept at −80° C. Cytokine levels in cell culture supernatant were measured by multiplex ELISA (Milliplex map human cytokine/chemokine magnetic bead kit from Millipore).

[6] = system: Primary human saphenous vein smooth muscle (SMC); experiment: Alamar Blue assay for cell toxicity and proliferation, smooth muscle cells; conditions: 10 nM-10 μM, up to 72 hours; FIGS. 3D-3F, 4A, 4B
Method: Primary human saphenous vein smooth muscle (SMC) and endothelial cells (EC) were left untreated or treated with inhibitor compounds (10 nM-10 μM) for a period of 3-4 days. Cell proliferation was measured using our previously published Alamar Blue Assay (Monahan et al., FASEB J., 23:557-564, 2009; Yoshida et al., J. Am. Coll. Surg. 213:668-67, 2011).

[7] = system: Primary human saphenous vein endothelial cells (EC); experiment: Alamar Blue assay for cell toxicity and proliferation, endothelial cells; assay type: cell-based; conditions: 10 nM-10 μM, up to 76 hours; FIGS. 3A-3C
Description: Alamar Blue Assay for Cell Toxicity and Proliferation

IL18 [8] = biological target: T1, IL18; conditions: background statement; read-out: affinity for hIL18; cited from earlier work
[9] = FIG. 6, compound 1 μM, no treatment 1.33±0.85
[10] = labelled IL18, 37.0° C., n 2, Table 3
[11] = FIG. 5, compound 1 μM, no treatment 1.06±0.38

Molecule: C[S+]([O-])c1ccc(-c2nc(-c3ccc(F)cc3)c(-c3ccncc3)[nH]2)cc1 (stereo not drawn) [Compound 1V]
- IFN-γ expression in NK92 cells (literature statement) [1]: known inhibitor of IFN-γ expression in NK92 cells

Molecule: Nc1cccc(Cc2cccc(N)c2)c1 [Compound 1]
- IL-18 activity (SEAP reporter) (IL18 [2]): significantly reduce IL-18 activity
- IFN-γ expression [3, 9]: 0.04±0.02
- Kd (IL18 [4]; FIGS. 9A-9C): 60.6 nM
- Kd (IL18 [4]; [10]): 60.6 nM
- IL-6 expression [5]: significantly inhibited
- IL-8 expression [5]: significantly inhibited
- TNF expression [5]: significantly inhibited

Molecule: Cc1ccc(Cc2ccc(C)c(N)c2)cc1N [Compound 5]
- IL-6 expression [5]: significantly inhibited
- IL-8 expression [5]: significantly inhibited
- TNF expression [5]: significantly inhibited

- Kd (IL18 [4]; FIGS. 9A-9C): 2.27 nM
- Kd (IL18 [4]; [10]): 2.27 nM
Molecule: O=C1c2nn[nH]c2C(=O)c2nn[nH]c21 [Compound 10]
- IL-18 activity (SEAP reporter) (IL18 [2]): significantly reduce IL-18 activity
- IL-6 expression [5]: significantly inhibited
- IL-8 expression [5]: significantly inhibited
- TNF expression [5]: significantly inhibited
- toxicity in SMC (Alamar Blue) [6]: no toxicity

- Kd (IL18 [4]; FIG. 9C): 5600 nM
- Kd (IL18 [4]; [10]): 5640 nM
Molecule: CC(C)c1ccc(NC(=N)NC(=N)N)cc1 [Compound 15]
- IL-18 activity (SEAP reporter) (IL18 [2]): significantly reduce IL-18 activity
- IFN-γ expression [3, 11]: 0.99±0.38
- toxicity in SMC (Alamar Blue) [6]: no toxicity
- toxicity in EC (Alamar Blue) [7]: no toxicity

Molecule: IL-18: Interleukin-18, pro-inflammatory cytokine used as stimulus of IFN-γ expression
- IFN-γ expression [3, 11]: 5.52±3.43
- IFN-γ expression [3, 9]: 7.9±7.23

- Kd (IL18 [4]; FIGS. 9A-9C): 1.85 nM
- Kd (IL18 [4]; [10]): 1.85 nM
B1: IL18BP: Interleukin-18 Binding Protein, naturally occurring IL18 antagonist, soluble protein with a single Ig domain; positive control (protein, UniProt O95998 31-194, looked up)
Interleukin-18-binding protein: TPVSQTTTAATASVRSTKDPCPSQPPVFPAAKQCPALEVTWPEVEVPLNGTLSLSCVACSRFPNFSILYWLGNGSFIEHLPGRLWEGSTSRERGSTGTQLCKALVLEQLTPALHSTNFSCVLVDPEQVVQRHVVLAQLWAGLRATLPPTQEALPSSHSSPQQQG
- Kd (IL18 [8]): 0.4 nM
- IL-18 activity (SEAP reporter) (IL18 [2]): significantly reduce IL-18 activity

Source: patent US20220281802A1, “COMPOUNDS, PHARMACEUTICAL COMPOSITIONS, AND METHODS OF THEIR USE IN THE INHIBITION OF INTERACTION BETWEEN IL18 AND IL18R” (Beth Israel Deaconess Medical Center, Inc., priority 2019, published 2022)
